Laboratory results from publication PMC6039563, “Functional Identification and Characterization of the Diuretic Hormone 31 (DH31) Signaling System in the Green Shore Crab, Carcinus maenas” (Frontiers in Neuroscience, 2018).
Ends that are not written are not given here.

Assays:
[1] = biological target: T1, C. maenas DH31R (Carcinus maenas, UniProt A0A345BTT1); test: aequorin luminescence Ca2+ mobilization assay, CHO-K1-Aeq-Gα16 cells transiently expressing DH31R; assay type: cell-based; details: for EC50: read-out: EC50 of luminescence response; for luminescence response / activation of DH31R: DH31R-transfected CHO-K1-Aeq cells, tested up to micromolar levels
T1 sequence (A0A345BTT1 1-442): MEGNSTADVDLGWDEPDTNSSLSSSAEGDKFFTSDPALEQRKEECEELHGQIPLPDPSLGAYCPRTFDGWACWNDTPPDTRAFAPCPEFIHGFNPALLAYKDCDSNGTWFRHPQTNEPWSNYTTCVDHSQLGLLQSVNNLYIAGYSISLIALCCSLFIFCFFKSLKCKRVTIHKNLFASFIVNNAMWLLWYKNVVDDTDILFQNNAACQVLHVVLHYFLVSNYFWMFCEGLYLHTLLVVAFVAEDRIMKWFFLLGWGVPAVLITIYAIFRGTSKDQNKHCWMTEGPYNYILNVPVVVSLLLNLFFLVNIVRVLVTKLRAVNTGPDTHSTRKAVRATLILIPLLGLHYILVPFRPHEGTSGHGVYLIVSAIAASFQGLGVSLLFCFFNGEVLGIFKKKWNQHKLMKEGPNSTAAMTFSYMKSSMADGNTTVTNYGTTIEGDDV
Procedure: (§1) Cells were then diluted 10-fold prior to assay.
Amino acid sequences are shown in Supplementary Table S2. […] Receptor responses were normalized against total Ca^2+ luminescence.

[2] = biological target: T1, C. maenas DH31R; test: cell-based
Procedure: as §1
Amino acid sequences are shown in Supplementary Table S2. […] Ca^2+ evoked luminescence was recorded for 40 s, followed by cell lysis (injection of 0.3% Triton-X 100 in BSA medium), and light emission recorded for a further 10 s. […] Receptor responses were normalized against total Ca^2+ luminescence.

[3] = CHO-K1-Aeq-Gα16 cells transiently expressing DH31R, simultaneously performed experiments with three DH31s (Figure 3 main panel), means of n = 4

| Substance | EC50 [1, 3] | luminescence response / activation of DH31R [1] | also measured |
| --- | --- | --- | --- |
| GLDLGLGRGFSGSQAAKHLMGLAAANFAGGP-NH2 [Tribolium castaneum DH31] | ~30 nM |  |  |
| GLDLGLSRGFSGSQAAKHLMGLAAANYAGGP-NH2 [Diploptera punctata DH31] | ~30 nM |  |  |
| GLDMGLGRGFSGSQAAKHLMGLAAANYAGGP-NH2 [C. maenas DH31] | ~30 nM |  | EC50 ([1]; CHO-K1-Aeq-Gα16 cells transfected with DH31R, Figure 3 inset, independent set of transfections, means of N = 4): ~15 nM; EC50 [2]: ~15 nM |
| MQRPQGPSLSVANPIEVLRSRLLLEIARRRMKEQDASRVSKNRQYLQQIG [R. prolixus CRF-like DH, Rhodnius prolixus corticotropin releasing factor-like diuretic hormone (I. Orchard, Toronto)] |  | No luminescence responses |  |
| NSELINSLGLPKVMNDA-NH2 [C. maenas PDH-1, C. maenas pigment dispersing hormone-1 (Liverpool University)] |  | No luminescence responses | luminescence response / activation of DH31R ([1]; listed as PDH-1): does not activate |
